Laboratory results as given in patent US20250163119A1, “COMPOUNDS FOR THE TREATMENT OF DIABETES OR OBESITY” (Eli Lilly and Company, priority 2023, published 2025).
“And” between values parts separate entries of the source, which are not always exact repeats. Equal entries are not always repeated. Where two headings read alike, the source gives them in different places. *1 amine or outer side, *2 acyl side, *3 side chain or, on linkers, in order; H or OH if unused. Side-chain parts run from the residue outwards. [ ]: non-standard residue; d: D form. The star is where a group is joined. C20 diacid = O=C(O)CCCCCCCCCCCCCCCCCCC(=O)*; γGlu = O=C(O)[C@H](CCC(=O)[*:2])N[*:1]; εLys = N[C@@H](CCCCN[*:1])C(=O)[*:2]; pGlu = O=C1CC[C@@H](C(=O)O)N1; αMeL = CC(C)C[C@](C)(N)C(=O)O; AEEA = NCCOCCOCC(=O)O; Aib = CC(C)(N)C(=O)O

How the values were obtained:
human CRHR1 = biological target: T1, human CRHR1 (Homo sapiens, UniProt P34998); test: Human CRHR1 cAMP assay (HTRF) in HEK293 cells stably expressing human CRHR1; type: cell-based; details: HEK293 cells overexpressing human CRHR1; relative EC50, maximum 66 nM human UCN1; mean ± SE; read-out: hCRHR1 cAMP EC50 (pM, ± SE)
T1 construct: expressed in transfected cells
T1 sequence (P34998 24-415): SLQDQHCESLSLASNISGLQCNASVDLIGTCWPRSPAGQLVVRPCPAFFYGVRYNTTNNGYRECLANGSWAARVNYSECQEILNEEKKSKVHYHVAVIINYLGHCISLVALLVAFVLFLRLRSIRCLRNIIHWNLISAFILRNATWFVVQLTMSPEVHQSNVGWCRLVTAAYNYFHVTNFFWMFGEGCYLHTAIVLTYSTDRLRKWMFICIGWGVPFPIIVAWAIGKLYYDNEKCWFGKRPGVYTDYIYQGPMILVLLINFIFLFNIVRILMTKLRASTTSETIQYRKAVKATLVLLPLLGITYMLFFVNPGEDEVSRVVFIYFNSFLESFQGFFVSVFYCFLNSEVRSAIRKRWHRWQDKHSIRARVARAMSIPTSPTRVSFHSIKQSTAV
Summary of the method: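 HEK293 cells stably expressing human CRHR1 (25,000/well) or CRHR2b (5,000/well) were treated with peptides in MEM with 0.1% casein, 5 mM HEPES pH 7.4 and 0.25 mM IBMX. Incubation was 1 h at 37 °C for CRHR1 and 30 min at room temperature for CRHR2. cAMP was measured by HTRF (665/620 nm) against a per-experiment cAMP standard curve.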

[1] = Pharmacokinetics in Sprague Dawley rats, single subcutaneous or intravenous dose (incl. 10, 30, 100 nmol/kg dose response); type: in vivo
[2] = dose response, single subcutaneous dose 10 nmol/kg, male Sprague Dawley rats, individual animal
[3] = dose response, single subcutaneous dose 30 nmol/kg, male Sprague Dawley rats, individual animal
[4] = dose response, single subcutaneous dose 100 nmol/kg, male Sprague Dawley rats, individual animal
[5] = male Sprague Dawley rats, single intravenous dose 183 nmol/kg, individual animal
[6] = male, Sprague Dawley, rat, plasma, iv, 183 nmol/kg, single intravenous dose 183 nmol/kg, Mean
[7] = male, Sprague Dawley, rat, plasma, iv, 183 nmol/kg, single intravenous dose 183 nmol/kg, individual animal
[8] = single subcutaneous dose 183 nmol/kg, male Sprague Dawley rats, individual animal

EC50 (human CRHR1): > 1e+07 pM | CL/F [1, 2]: 3.60 mL/h/kg and 3.54 mL/h/kg | T1/2 [1, 2]: 23.1 h and 41.5 h | CL/F [1, 3]: 3.62 mL/h/kg and 4.25 mL/h/kg | T1/2 [1, 3]: 33.6 h and 24.1 h | CL/F [1, 4]: 3.91 mL/h/kg | T1/2 [1, 4]: 25.9 h and 30.7 h | CL [1, 5]: 2.30 mL/h/kg and 1.98 mL/h/kg | T1/2 [1, 5]: 21.3 h and 22.9 h | clearance [1, 6]: 2.12 mL/h/kg | half-life [1, 6]: 1380 min | clearance [1, 7]: 2.07 mL/h/kg | half-life [1, 7]: 1480 min | half-life ([1]; male, Sprague Dawley, rat, plasma, sc, 10 nmol/kg, dose response, single subcutaneous dose 10 nmol/kg, individual animal): 1820 min | CL/F ([1]; male, Sprague Dawley, rat, plasma, sc, 10 nmol/kg, dose response, single subcutaneous dose 10 nmol/kg, individual animal, read-out: CL/F (converted)): 3.75 mL/h/kg | Tmax ([1]; male, Sprague Dawley, rat, plasma, sc, 10 nmol/kg, dose response, single subcutaneous dose 10 nmol/kg, individual animal, read-out: Tmax): 24 h | half-life ([1]; male, Sprague Dawley, rat, plasma, sc, 10 nmol/kg, dose response, single subcutaneous dose 10 nmol/kg, mean): 1900 min | CL/F ([1]; male, Sprague Dawley, rat, plasma, sc, 10 nmol/kg, dose response, single subcutaneous dose 10 nmol/kg, mean, read-out: CL/F (converted)): 3.63 mL/h/kg | Tmax ([1]; male, Sprague Dawley, rat, plasma, sc, 10 nmol/kg, dose response, single subcutaneous dose 10 nmol/kg, mean, read-out: Tmax): 24 h | half-life ([1]; male, Sprague Dawley, rat, plasma, sc, 30 nmol/kg, dose response, single subcutaneous dose 30 nmol/kg, individual animal): 1640 min | CL/F ([1]; male, Sprague Dawley, rat, plasma, sc, 30 nmol/kg, dose response, single subcutaneous dose 30 nmol/kg, individual animal, read-out: CL/F (converted)): 4.07 mL/h/kg | Tmax ([1]; male, Sprague Dawley, rat, plasma, sc, 30 nmol/kg, dose response, single subcutaneous dose 30 nmol/kg, individual animal, read-out: Tmax): 24 h | half-life ([1]; male, Sprague Dawley, rat, plasma, sc, 30 nmol/kg, dose response, single subcutaneous dose 30 nmol/kg, mean): 1700 min | CL/F ([1]; male, Sprague Dawley, rat, plasma, sc, 30 nmol/kg, dose response, single subcutaneous dose 30 nmol/kg, mean, read-out: CL/F (converted)): 3.98 mL/h/kg | Tmax ([1]; male, Sprague Dawley, rat, plasma, sc, 30 nmol/kg, dose response, single subcutaneous dose 30 nmol/kg, mean, read-out: Tmax): 24 h | half-life ([1]; male, Sprague Dawley, rat, plasma, sc, 100 nmol/kg, dose response, single subcutaneous dose 100 nmol/kg, individual animal): 1720 min | CL/F ([1]; male, Sprague Dawley, rat, plasma, sc, 100 nmol/kg, dose response, single subcutaneous dose 100 nmol/kg, individual animal, read-out: CL/F (converted)): 3.85 mL/h/kg | Tmax ([1]; male, Sprague Dawley, rat, plasma, sc, 100 nmol/kg, dose response, single subcutaneous dose 100 nmol/kg, individual animal, read-out: Tmax): 24 h | half-life ([1]; male, Sprague Dawley, rat, plasma, sc, 100 nmol/kg, dose response, single subcutaneous dose 100 nmol/kg, mean): 1700 min | CL/F ([1]; male, Sprague Dawley, rat, plasma, sc, 100 nmol/kg, dose response, single subcutaneous dose 100 nmol/kg, mean, read-out: CL/F (converted)): 3.89 mL/h/kg | Tmax ([1]; male, Sprague Dawley, rat, plasma, sc, 100 nmol/kg, dose response, single subcutaneous dose 100 nmol/kg, mean, read-out: Tmax): 24 h | half-life ([1]; male, Sprague Dawley, rat, plasma, sc, 183 nmol/kg, single subcutaneous dose 183 nmol/kg, individual animal): 1570 min | CL/F ([1]; male, Sprague Dawley, rat, plasma, sc, 183 nmol/kg, single subcutaneous dose 183 nmol/kg, individual animal, read-out: CL/F (converted)): 4.75 mL/h/kg | Tmax ([1]; male, Sprague Dawley, rat, plasma, sc, 183 nmol/kg, single subcutaneous dose 183 nmol/kg, individual animal, read-out: Tmax): 24 h | half-life ([1]; male, Sprague Dawley, rat, plasma, sc, 183 nmol/kg, single subcutaneous dose 183 nmol/kg, mean): 1430 min | CL/F ([1]; male, Sprague Dawley, rat, plasma, sc, 183 nmol/kg, single subcutaneous dose 183 nmol/kg, mean, read-out: CL/F (converted)): 5.04 mL/h/kg | Tmax ([1]; male, Sprague Dawley, rat, plasma, sc, 183 nmol/kg, single subcutaneous dose 183 nmol/kg, mean, read-out: Tmax): 32 h | AUC0-inf ([1]; rat, plasma, sc, dose response, single subcutaneous dose 10 nmol/kg, male Sprague Dawley rats, mean, read-out: AUC0-inf): 2.85 µM·h | Cmax ([1]; rat, plasma, sc, dose response, single subcutaneous dose 10 nmol/kg, male Sprague Dawley rats, mean, read-out: Cmax): 49.8 nmol/L | AUC0-inf ([1]; rat, plasma, sc, dose response, single subcutaneous dose 30 nmol/kg, male Sprague Dawley rats, mean, read-out: AUC0-inf): 7.76 µM·h | Cmax ([1]; rat, plasma, sc, dose response, single subcutaneous dose 30 nmol/kg, male Sprague Dawley rats, mean, read-out: Cmax): 129 nmol/L | AUC0-inf ([1]; rat, plasma, sc, dose response, single subcutaneous dose 100 nmol/kg, male Sprague Dawley rats, mean, read-out: AUC0-inf): 26.3 µM·h | Cmax ([1]; rat, plasma, sc, dose response, single subcutaneous dose 100 nmol/kg, male Sprague Dawley rats, mean, read-out: Cmax): 386 nmol/L | AUC0-inf ([1]; rat, plasma, sc, single subcutaneous dose 183 nmol/kg, male Sprague Dawley rats, mean, read-out: AUC0-inf): 36.8 µM·h | Cmax ([1]; rat, plasma, sc, single subcutaneous dose 183 nmol/kg, male Sprague Dawley rats, mean, read-out: Cmax): 583 nmol/L | AUC0-inf ([1]; rat, plasma, male Sprague Dawley rats, single intravenous dose 183 nmol/kg, Mean, read-out: AUC0-inf): 86.8 µM·h | C0 ([1]; rat, plasma, male Sprague Dawley rats, single intravenous dose 183 nmol/kg, Mean, read-out: C0): 4.61 µM | CL/F [1, 8]: 5.39 mL/h/kg and 4.99 mL/h/kg | T1/2 [1, 8]: 21.8 h and 23.5 h | Tmax [1, 8]: 48 h
Substance: [pGlu]GSPSGIVTS[αMeL]DVPT[Aib][αMeL]LQKILEQERAEKARQQAK([γGlu-AEEA-εLys-C20 diacid])EAAEILAQV-NH2 [SEQ ID NO: 22, Pyr-GSPSGIVTS αMeL DVPT Aib αMeL LQKILEQERAEKARQQAK(γE-(2-[2-(2-Amino-ethoxy)-ethoxy]-acetyl)-ϵK-CO-(CH2)18-CO2H)EAAEILAQV-NH2]
AUC0-inf [1, 2]: 2.73 µM·h and 2.81 µM·h and 3.02 µM·h | Cmax [1, 2]: 49.5 nmol/L and 51.3 nmol/L and 48.6 nmol/L | AUC0-inf [1, 3]: 7.52 µM·h and 8.6 µM·h and 7.16 µM·h | Cmax [1, 3]: 126 nmol/L and 132 nmol/L and 128 nmol/L | AUC0-inf [1, 4]: 26.7 µM·h and 26 µM·h and 26.3 µM·h | Cmax [1, 4]: 372 nmol/L and 416 nmol/L and 369 nmol/L | AUC0-inf [1, 5]: 88.4 µM·h and 79.6 µM·h and 92.3 µM·h | C0 [1, 5]: 3.24 µM and 5.39 µM and 5.2 µM | AUC0-inf [1, 8]: 38.9 µM·h and 34.3 µM·h and 37.1 µM·h | Cmax [1, 8]: 783 nmol/L and 439 nmol/L and 527 nmol/L
